Laboratory results as given in ChEMBL document CHEMBL1201862, “PubChem BioAssay data set” (2004).
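1) Cells in 96-well plates. 2) Compound, 48 h, 5 concentrations. 3) Linear interpolation between surrounding doses. 4) Unreached endpoint = highest concentration. The concentration for 50% growth inhibition is given as GI50.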 Active and inactive are the calls of the source. Cut-off read from the data, not from the text of the source: active = GI50 up to about 1.1 µM and inactive = higher.

What was measured:
Experiment in all cases: NCI-60 cell line screen, 48 h
MDA-N = system: MDA-N
IGROV-1 = system: IGROV-1
TK-10 = system: TK-10
UO-31 = system: UO-31
RPMI-8226 = system: RPMI-8226
MOLT-4 = system: MOLT-4
KM12 = system: KM12
SNB-19 = system: SNB-19
RXF 393 = system: RXF 393
NCI/ADR-RES = system: NCI/ADR-RES
786-0 = system: 786-0
CAKI-1 = system: CAKI-1
MDA-MB-435 = system: MDA-MB-435
NCI-H23 = system: NCI-H23
M14 = system: M14
NCI-H522 = system: NCI-H522
U-251 = system: U-251
SW-620 = system: SW-620
Hs-578T = system: Hs-578T

Measured: GI50

O=C1Nc2ccc(S(=O)(=O)O)cc2/C1=C1/Nc2ccc(Br)cc2C1=O
inactive: MDA-N > 100 µM | IGROV-1 19.1 µM | TK-10 > 100 µM | UO-31 > 100 µM | RPMI-8226 > 100 µM | MOLT-4 > 100 µM | KM12 > 100 µM | SNB-19 > 100 µM | RXF 393 > 100 µM | NCI/ADR-RES > 100 µM | 786-0 > 100 µM | CAKI-1 > 100 µM | MDA-MB-435 > 100 µM | NCI-H23 > 100 µM | M14 > 100 µM | NCI-H522 > 100 µM | U-251 > 100 µM | SW-620 > 100 µM | Hs-578T > 100 µM

O=C1N[C@H]2C(=O)c3c(Br)sc(Br)c3[C@H]2O1
inactive: MDA-N 7.01 µM | IGROV-1 11.4 µM | TK-10 22 µM | UO-31 1.86 µM | RPMI-8226 4.44 µM | MOLT-4 2.25 µM | KM12 19 µM | SNB-19 15.9 µM | RXF 393 3.18 µM | NCI/ADR-RES 13.4 µM | 786-0 8.26 µM | CAKI-1 4.53 µM | MDA-MB-435 3.89 µM | NCI-H23 6.44 µM | M14 3.08 µM | NCI-H522 1.55 µM | U-251 3.48 µM | SW-620 2.17 µM | Hs-578T 18.7 µM

C/C(=C\CNc1ncnc2c1ncn2CCC(=O)OC(C)(C)C)CO
inactive: MDA-N > 100 µM | IGROV-1 > 100 µM | TK-10 > 100 µM | UO-31 > 100 µM | RPMI-8226 > 100 µM | MOLT-4 > 100 µM | KM12 > 100 µM | SNB-19 > 100 µM | RXF 393 > 100 µM | NCI/ADR-RES > 100 µM | 786-0 > 100 µM | CAKI-1 > 100 µM | MDA-MB-435 > 100 µM | NCI-H23 > 100 µM | M14 > 100 µM | NCI-H522 > 100 µM | SW-620 > 100 µM | Hs-578T > 100 µM

Cc1ccc([N+](=O)[O-])cc1S(=O)(=O)Nc1ccc(C2=NOC(c3cccs3)C2)cc1 (centres undefined)
inactive: MDA-N 2.74 µM | IGROV-1 11.1 µM | TK-10 16.4 µM | UO-31 6.25 µM | RPMI-8226 10.4 µM | MOLT-4 4.04 µM | KM12 7.18 µM | SNB-19 13.8 µM | RXF 393 5.02 µM | NCI/ADR-RES 4.13 µM | 786-0 17.5 µM | CAKI-1 18.7 µM | MDA-MB-435 2.53 µM | NCI-H23 17.6 µM | M14 5.98 µM | NCI-H522 3.2 µM | SW-620 7.5 µM | Hs-578T 20 µM
